According to PubChem BioAssay AID256 (DTP/NCI, 2004):
Toxic doses and inconclusive results are not listed. Rule for the calls: active = survival T/C of 150% or more; inactive = T/C below 125% in these data.

System: CD2F1 mice, L1210 leukemia ip, survival T/C
Experiment: NCI In Vivo Anticancer Drug Screen. Data for tumor model L1210 Leukemia (intraperitoneal) in CD2F1 (CDF1) mice
Settings: higher = longer survival
Method in brief: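 In this screen, transplantable tumors were grown in mice given either the compound or its vehicle. Results were expressed as the treated measurement relative to the control measurement.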

[1] = endpoint: mean survival time, dose: 25.0 mg/kg/injection, schedule: Q04DX003 (ip), vehicle: saline with Tween-80
[2] = endpoint: mean survival time, dose: 100.0 mg/kg/injection, schedule: Q01DX009 (ip), vehicle: saline with Tween-80
[3] = endpoint: mean survival time, dose: 100.0 mg/kg/injection, schedule: Q04DX003 (ip), vehicle: saline with Tween-80

Measured: T/C

CN(C)CC(=O)c1ccc(O)c(O)c1
inactive: endpoint: mean survival time, dose: 16.0 mg/kg/injection, schedule: Q03HX008 (ip), vehicle: saline 95 % of control | endpoint: mean survival time, dose: 16.0 mg/kg/injection, schedule: Q03HX016 (ip), vehicle: saline 97 % of control | endpoint: mean survival time, dose: 32.0 mg/kg/injection, schedule: Q03HX008 (ip), vehicle: saline 96 % of control | endpoint: mean survival time, dose: 32.0 mg/kg/injection, schedule: Q03HX016 (ip), vehicle: saline 106 % of control | endpoint: mean survival time, dose: 64.0 mg/kg/injection, schedule: Q01DX009 (sc), vehicle: saline 86 % of control | endpoint: mean survival time, dose: 64.0 mg/kg/injection, schedule: Q03HX008 (ip), vehicle: saline 110 % of control | endpoint: mean survival time, dose: 64.0 mg/kg/injection, schedule: Q03HX016 (ip), vehicle: saline 111 % of control | endpoint: mean survival time, dose: 64.0 mg/kg/injection, schedule: Q04DX003 (ip), vehicle: saline 101 % of control | endpoint: mean survival time, dose: 128.0 mg/kg/injection, schedule: Q01DX001 (oral), vehicle: saline 98 % of control | endpoint: mean survival time, dose: 128.0 mg/kg/injection, schedule: Q01DX001 (sc), vehicle: saline 98 % of control | endpoint: mean survival time, dose: 128.0 mg/kg/injection, schedule: Q01DX009 (oral), vehicle: saline 93 % of control | endpoint: mean survival time, dose: 128.0 mg/kg/injection, schedule: Q01DX009 (sc), vehicle: saline 86 % of control | endpoint: mean survival time, dose: 128.0 mg/kg/injection, schedule: Q03HX008 (ip), vehicle: saline 118 % of control | endpoint: mean survival time, dose: 128.0 mg/kg/injection, schedule: Q03HX016 (ip), vehicle: saline 122 % of control | endpoint: mean survival time, dose: 128.0 mg/kg/injection, schedule: Q04DX003 (ip), vehicle: saline 107 % of control | endpoint: mean survival time, dose: 128.0 mg/kg/injection, schedule: Q08DX002 (ip), vehicle: saline 105 % of control | endpoint: mean survival time, dose: 256.0 mg/kg/injection, schedule: Q01DX001 (oral), vehicle: saline 101 % of control | endpoint: mean survival time, dose: 256.0 mg/kg/injection, schedule: Q01DX001 (sc), vehicle: saline 96 % of control | endpoint: mean survival time, dose: 256.0 mg/kg/injection, schedule: Q01DX009 (oral), vehicle: saline 92 % of control | endpoint: mean survival time, dose: 256.0 mg/kg/injection, schedule: Q01DX009 (sc), vehicle: saline 86 % of control | endpoint: mean survival time, dose: 256.0 mg/kg/injection, schedule: Q04DX003 (ip), vehicle: saline 107 % of control | endpoint: mean survival time, dose: 256.0 mg/kg/injection, schedule: Q08DX002 (ip), vehicle: saline 103 % of control | endpoint: mean survival time, dose: 512.0 mg/kg/injection, schedule: Q01DX001 (oral), vehicle: saline 98 % of control | endpoint: mean survival time, dose: 512.0 mg/kg/injection, schedule: Q01DX001 (sc), vehicle: saline 95 % of control | endpoint: mean survival time, dose: 512.0 mg/kg/injection, schedule: Q01DX009 (oral), vehicle: saline 91 % of control | endpoint: mean survival time, dose: 512.0 mg/kg/injection, schedule: Q01DX009 (sc), vehicle: saline 86 % of control | endpoint: mean survival time, dose: 512.0 mg/kg/injection, schedule: Q04DX003 (ip), vehicle: saline 107 % of control | endpoint: mean survival time, dose: 512.0 mg/kg/injection, schedule: Q08DX002 (ip), vehicle: saline 105 % of control | endpoint: mean survival time, dose: 1024.0 mg/kg/injection, schedule: Q01DX001 (oral), vehicle: saline 96 % of control | endpoint: mean survival time, dose: 1024.0 mg/kg/injection, schedule: Q01DX001 (sc), vehicle: saline 107 % of control | endpoint: mean survival time, dose: 1024.0 mg/kg/injection, schedule: Q01DX009 (oral), vehicle: saline 93 % of control | endpoint: mean survival time, dose: 1024.0 mg/kg/injection, schedule: Q08DX002 (ip), vehicle: saline 110 % of control

CC1CCC2CC(=O)NC(=O)CC12 (centres undefined)
inactive: endpoint: mean survival time, dose: 6.25 mg/kg/injection, schedule: Q01DX009 (ip), vehicle: saline with Tween-80 98 % of control | endpoint: mean survival time, dose: 6.25 mg/kg/injection, schedule: Q04DX003 (ip), vehicle: saline with Tween-80 97 % of control | endpoint: mean survival time, dose: 12.5 mg/kg/injection, schedule: Q01DX009 (ip), vehicle: saline with Tween-80 95 % of control | endpoint: mean survival time, dose: 12.5 mg/kg/injection, schedule: Q04DX003 (ip), vehicle: saline with Tween-80 97 % of control | endpoint: mean survival time, dose: 25.0 mg/kg/injection, schedule: Q01DX009 (ip), vehicle: saline with Tween-80 96 % of control | [1] 92 % of control

CCCC1(CC(C)CC)C(=O)NC(=O)NC1=O (centres undefined) (tested in a mixture with another compound)
inactive: endpoint: mean survival time, dose: 75.0 mg/kg/injection, schedule: Q01DX001 (ip), vehicle: saline 93 % of control | endpoint: mean survival time, dose: 150.0 mg/kg/injection, schedule: Q01DX001 (ip), vehicle: saline 100 % of control | endpoint: mean survival time, dose: 300.0 mg/kg/injection, schedule: Q01DX001 (ip), vehicle: saline 104 % of control

OCC(O)C1OC(c2ccccc2)OC(CO)C1O (centres undefined)
inactive: endpoint: mean survival time, dose: 100.0 mg/kg/injection, schedule: Q04DX003 (ip), vehicle: saline + alcohol 106 % of control | endpoint: mean survival time, dose: 200.0 mg/kg/injection, schedule: Q04DX003 (ip), vehicle: saline + alcohol 100 % of control | endpoint: mean survival time, dose: 400.0 mg/kg/injection, schedule: Q04DX003 (ip), vehicle: saline + alcohol 95 % of control

O=C(O)CCC(=O)c1ccc([N+](=O)[O-])cc1
inactive: endpoint: mean survival time, dose: 100.0 mg/kg/injection, schedule: Q01DX001 (ip), vehicle: saline 101 % of control | endpoint: mean survival time, dose: 200.0 mg/kg/injection, schedule: Q01DX001 (ip), vehicle: saline 97 % of control | endpoint: mean survival time, dose: 400.0 mg/kg/injection, schedule: Q01DX001 (ip), vehicle: saline 97 % of control

C/C(=N\O)c1ccc2[nH]c(C)cc(=O)c2c1
inactive: endpoint: mean survival time, dose: 37.5 mg/kg/injection, schedule: Q01DX009 (ip), vehicle: saline 97 % of control | endpoint: mean survival time, dose: 75.0 mg/kg/injection, schedule: Q01DX009 (ip), vehicle: saline 97 % of control | endpoint: mean survival time, dose: 75.0 mg/kg/injection, schedule: Q04DX003 (ip), vehicle: saline 95 % of control | endpoint: mean survival time, dose: 150.0 mg/kg/injection, schedule: Q01DX009 (ip), vehicle: saline 92 % of control | endpoint: mean survival time, dose: 150.0 mg/kg/injection, schedule: Q04DX003 (ip), vehicle: saline 95 % of control | endpoint: mean survival time, dose: 300.0 mg/kg/injection, schedule: Q04DX003 (ip), vehicle: saline 93 % of control

CC(=O)c1c(C(C)C)cc(C(C)C)cc1C(C)C
inactive: [2] 98 % of control | endpoint: mean survival time, dose: 200.0 mg/kg/injection, schedule: Q01DX009 (ip), vehicle: saline with Tween-80 101 % of control | endpoint: mean survival time, dose: 400.0 mg/kg/injection, schedule: Q01DX009 (ip), vehicle: saline with Tween-80 101 % of control

CCCOC(=O)COc1ccc(F)cc1
inactive: endpoint: mean survival time, dose: 100.0 mg/kg/injection, schedule: Q04DX002 (ip), vehicle: saline with Tween-80 97 % of control | endpoint: mean survival time, dose: 200.0 mg/kg/injection, schedule: Q04DX002 (ip), vehicle: saline with Tween-80 101 % of control | endpoint: mean survival time, dose: 400.0 mg/kg/injection, schedule: Q04DX002 (ip), vehicle: saline with Tween-80 97 % of control

CC(=O)Nc1ccc(S(=O)(=O)F)cc1
inactive: endpoint: mean survival time, dose: 50.0 mg/kg/injection, schedule: Q01DX009 (ip), vehicle: saline with Tween-80 93 % of control | endpoint: mean survival time, dose: 100.0 mg/kg/injection, schedule: Q01DX001 (ip), vehicle: saline with Tween-80 91 % of control | [2] 93 % of control | [3] 94 % of control | endpoint: mean survival time, dose: 200.0 mg/kg/injection, schedule: Q01DX001 (ip), vehicle: saline with Tween-80 100 % of control | endpoint: mean survival time, dose: 200.0 mg/kg/injection, schedule: Q04DX003 (ip), vehicle: saline with Tween-80 102 % of control

C#CC(C)O (centres undefined)
inactive: endpoint: mean survival time, dose: 25.0 mg/kg/injection, schedule: Q01DX009 (ip), vehicle: saline 96 % of control | endpoint: mean survival time, dose: 50.0 mg/kg/injection, schedule: Q01DX009 (ip), vehicle: saline 89 % of control

CC1CCC2CCCCC2[N-]1.CC1CCC2CCCCC2[N-]1.[Cl][Pt+2][Cl] (centres undefined)
inactive: [1] 96 % of control | endpoint: mean survival time, dose: 50.0 mg/kg/injection, schedule: Q04DX003 (ip), vehicle: saline with Tween-80 94 % of control | [3] 94 % of control | endpoint: mean survival time, dose: 400.0 mg/kg/injection, schedule: Q04DX003 (ip), vehicle: saline with Tween-80 88 % of control

Cc1ccc(S(=O)(=O)OCCOc2ccc(C(C)(C)CC(C)(C)C)cc2)cc1
inactive: endpoint: mean survival time, dose: 100.0 mg/kg/injection, schedule: Q01DX001 (ip), vehicle: Klucel (hydroxypropylcellulose) (HPC) 93 % of control | endpoint: mean survival time, dose: 200.0 mg/kg/injection, schedule: Q01DX001 (ip), vehicle: Klucel (hydroxypropylcellulose) (HPC) 98 % of control | endpoint: mean survival time, dose: 400.0 mg/kg/injection, schedule: Q01DX001 (ip), vehicle: Klucel (hydroxypropylcellulose) (HPC) 94 % of control

NC(=O)c1ncn(C2OC(CO)C(O)C2O)c1Cl (centres undefined)
inactive: endpoint: median survival time, dose: 8.0 mg/kg/injection, schedule: Q01DX005 (ip), vehicle: water 100 % of control | endpoint: median survival time, dose: 16.0 mg/kg/injection, schedule: Q01DX005 (ip), vehicle: water 103 % of control | endpoint: median survival time, dose: 32.0 mg/kg/injection, schedule: Q01DX005 (ip), vehicle: water 100 % of control | endpoint: median survival time, dose: 64.0 mg/kg/injection, schedule: Q01DX005 (ip), vehicle: water 100 % of control | endpoint: median survival time, dose: 128.0 mg/kg/injection, schedule: Q01DX005 (ip), vehicle: water 107 % of control
